Where a name gives a salt, the structure may show the parent alone.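 Test compounds were applied to cells in 96-well plates for 48 hours at 5 doses. The concentration for 50% growth inhibition is given as GI50.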 Active and inactive are the calls of the source. No stated cut-off is given here; in the data, active = GI50 up to about 1.1 µM and inactive = higher.
How the values were obtained:
Assay in all cases: NCI anticancer screen, dose series, 48 h
HOP-62 = tested on: HOP-62
SK-MEL-5 = tested on: SK-MEL-5
Malme-3M = tested on: Malme-3M
SN12C = tested on: SN12C
RXF 393 = tested on: RXF 393
OVCAR-8 = tested on: OVCAR-8
SW-620 = tested on: SW-620
OVCAR-5 = tested on: OVCAR-5
KM12 = tested on: KM12
HCT-116 = tested on: HCT-116
EKVX = tested on: EKVX
SF-268 = tested on: SF-268
TK-10 = tested on: TK-10
UACC-257 = tested on: UACC-257
A549 = tested on: A549
SNB-19 = tested on: SNB-19
IGROV-1 = tested on: IGROV-1
U-251 = tested on: U-251
NCI/ADR-RES = tested on: NCI/ADR-RES
NCI-H460 = tested on: NCI-H460

| Compound | GI50 (HOP-62) | GI50 (SK-MEL-5) | GI50 (Malme-3M) | GI50 (SN12C) | GI50 (RXF 393) | GI50 (OVCAR-8) | GI50 (SW-620) | GI50 (OVCAR-5) | GI50 (KM12) | GI50 (HCT-116) | GI50 (EKVX) | GI50 (SF-268) | GI50 (TK-10) | GI50 (UACC-257) | GI50 (A549) | GI50 (SNB-19) | GI50 (IGROV-1) | GI50 (U-251) | GI50 (NCI/ADR-RES) | GI50 (NCI-H460) |
| --- | --- | --- | --- | --- | --- | --- | --- | --- | --- | --- | --- | --- | --- | --- | --- | --- | --- | --- | --- | --- |
| CCCCOC(=O)CC(CC(=O)OCCCC)(OC(C)=O)C(=O)OCCCC [ACETYLTRIBUTYL CITRATE] | > 200 µM (inactive) | 16.1 µM (inactive) | 197 µM (inactive) | > 164 µM (inactive) | 1.1 µM (active) | > 190 µM (inactive) | > 130 µM (inactive) | > 200 µM (inactive) | > 112 µM (inactive) | 56.4 µM (inactive) | > 101 µM (inactive) | > 200 µM (inactive) | > 200 µM (inactive) | 47.9 µM (inactive) | 96.8 µM (inactive) | > 200 µM (inactive) | > 200 µM (inactive) | > 200 µM (inactive) | 91.6 µM (inactive) | 162 µM (inactive) |
| CN1c2ccccc2SC2C(c3ccccc3)=NOC21 (centres undefined) | 33.8 µM (inactive) | > 10 µM (inactive) | 8.39 µM (inactive) | 47.8 µM (inactive) | > 100 µM (inactive) | 49.3 µM (inactive) | 25.1 µM (inactive) | 94.8 µM (inactive) | 47.8 µM (inactive) | 23.7 µM (inactive) | 24.9 µM (inactive) | 51.8 µM (inactive) | 16.2 µM (inactive) | > 10 µM (inactive) | 36.5 µM (inactive) | 73.3 µM (inactive) | 41.6 µM (inactive) | 38.5 µM (inactive) | 29.8 µM (inactive) | 28.5 µM (inactive) |
| CC(C)=CCc1c(O)c(CC2=C(O)C(CC=C(C)C)(C(=O)C(C)C)C(O)=C(C)C2=O)c(O)c(C(=O)C(C)C)c1O (centres undefined) | 11.3 µM (inactive) | 7.87 µM (inactive) | 8.02 µM (inactive) | 18.8 µM (inactive) | 12.1 µM (inactive) | 12 µM (inactive) | 24 µM (inactive) | 11.9 µM (inactive) | 7.53 µM (inactive) | 3.05 µM (inactive) | 17.7 µM (inactive) | 9.86 µM (inactive) | 13.2 µM (inactive) | 11.5 µM (inactive) | 14.1 µM (inactive) | 7.73 µM (inactive) | 10.9 µM (inactive) | 12.4 µM (inactive) | 10.6 µM (inactive) |  |
| Cn1c(=O)c2nc3c(=O)n(C)c(=O)n(CC(N)=O)c3nc2n(C)c1=O | > 100 µM (inactive) | > 100 µM (inactive) | > 100 µM (inactive) | > 100 µM (inactive) | > 100 µM (inactive) | > 100 µM (inactive) | > 100 µM (inactive) | > 100 µM (inactive) | > 100 µM (inactive) | > 100 µM (inactive) | > 100 µM (inactive) | > 100 µM (inactive) | > 100 µM (inactive) | > 100 µM (inactive) |  | > 100 µM (inactive) | > 100 µM (inactive) | > 100 µM (inactive) | > 100 µM (inactive) | > 100 µM (inactive) |
| CCCNC(C#N)c1ccc(C(C#N)NCCC)cc1 (centres undefined) |  | > 100 µM (inactive) | > 100 µM (inactive) | > 100 µM (inactive) | > 100 µM (inactive) | 29.9 µM (inactive) | > 100 µM (inactive) | > 100 µM (inactive) | > 100 µM (inactive) | 40.3 µM (inactive) | > 100 µM (inactive) | > 100 µM (inactive) | > 100 µM (inactive) | > 100 µM (inactive) | > 100 µM (inactive) | > 100 µM (inactive) | > 100 µM (inactive) | > 100 µM (inactive) | 50.2 µM (inactive) | > 100 µM (inactive) |
| N#Cc1c(-c2ccc([N+](=O)[O-])cc2)c(C#N)c(=O)n(NS(=O)(=O)c2ccccc2)c1O | > 100 µM (inactive) | > 100 µM (inactive) | > 100 µM (inactive) | > 100 µM (inactive) | > 100 µM (inactive) | > 100 µM (inactive) | > 100 µM (inactive) | > 100 µM (inactive) |  | > 100 µM (inactive) | > 100 µM (inactive) |  | > 100 µM (inactive) | > 100 µM (inactive) | > 100 µM (inactive) | 18.5 µM (inactive) | > 100 µM (inactive) | > 100 µM (inactive) | > 100 µM (inactive) | > 100 µM (inactive) |
| Cc1ccc2c(O)cc(-c3sccc3C)nc2n1 | 2.1 µM (inactive) | 0.266 µM (active) | 0.463 µM (active) | 1.67 µM (inactive) | 1.31 µM (inactive) | 1.99 µM (inactive) | 0.264 µM (active) | 1.67 µM (inactive) | 0.719 µM (active) | 0.452 µM (active) | 4.43 µM (inactive) | 1.86 µM (inactive) | > 24.2 µM (inactive) |  | 0.612 µM (active) | 0.78 µM (active) | 0.625 µM (active) | 0.832 µM (active) | 0.326 µM (active) | 0.44 µM (active) |
